Test results as given in ChEMBL document CHEMBL1201862, “PubChem BioAssay data set” (2004).
Activity calls are given as the source filed them.

Experiments:
Format in all cases: functional
[1] = biological target: Casein kinase I isoform alpha (Homo sapiens, UniProt P48729)
[2] = biological target: Inhibitor of nuclear factor kappa-B kinase subunit epsilon (Homo sapiens, UniProt Q14164); assay: Navigating the Kinome. Panel member name: IKBKE
[3] = biological target: Serine/threonine-protein kinase D3 (Homo sapiens, UniProt O94806);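 further: determined within a kinase panel screen, with PRKCN as the panel member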
[4] = biological target: Mitogen-activated protein kinase 8 (Homo sapiens, UniProt P45983);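 further: value comes from one member of a kinome-wide kinase profiling panel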
[5] = biological target: Mitogen-activated protein kinase kinase kinase kinase 4 (Homo sapiens, UniProt O95819)
[6] = biological target: BDNF/NT-3 growth factors receptor (Homo sapiens, UniProt Q16620);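 further: NTRK2 measured as one member of a broad kinome-wide kinase profiling panel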
[7] = biological target: Serine/threonine-protein kinase Nek2 (Homo sapiens, UniProt P51955)
[8] = biological target: Protein kinase C theta type (Homo sapiens, UniProt Q04759); assay: Navigating the Kinome. Panel member name: PRKCQ
[9] = biological target: Leukocyte tyrosine kinase receptor (Homo sapiens, UniProt P29376); assay: Navigating the Kinome. Panel member name: LTK
[10] = biological target: Tyrosine-protein kinase Fyn (Homo sapiens, UniProt P06241)
[11] = biological target: Calcium/calmodulin-dependent protein kinase type II subunit alpha (Homo sapiens, UniProt Q9UQM7); assay: Navigating the Kinome. Panel member name: CAMK2A
Sequence of Calcium/calmodulin-dependent protein kinase type II subunit alpha (Q9UQM7 whole entry): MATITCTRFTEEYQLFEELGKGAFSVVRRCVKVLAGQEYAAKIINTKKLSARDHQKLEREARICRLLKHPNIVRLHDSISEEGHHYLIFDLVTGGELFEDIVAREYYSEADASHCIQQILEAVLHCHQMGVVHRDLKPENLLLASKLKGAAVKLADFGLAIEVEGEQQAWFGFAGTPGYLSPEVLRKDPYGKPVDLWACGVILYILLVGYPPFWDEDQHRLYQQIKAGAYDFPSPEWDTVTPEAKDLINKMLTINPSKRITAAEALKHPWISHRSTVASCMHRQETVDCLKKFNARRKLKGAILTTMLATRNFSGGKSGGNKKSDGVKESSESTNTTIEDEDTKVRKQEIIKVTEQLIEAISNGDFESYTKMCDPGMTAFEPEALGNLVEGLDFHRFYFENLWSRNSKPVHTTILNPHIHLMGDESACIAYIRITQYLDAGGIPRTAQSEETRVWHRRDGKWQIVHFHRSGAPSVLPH

[12] = biological target: Tyrosine-protein kinase receptor TYRO3 (Homo sapiens, UniProt Q06418);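 further: TYRO3 value obtained as one member of a kinome-wide profiling panel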
Sequence of Tyrosine-protein kinase receptor TYRO3 (Q06418 whole entry): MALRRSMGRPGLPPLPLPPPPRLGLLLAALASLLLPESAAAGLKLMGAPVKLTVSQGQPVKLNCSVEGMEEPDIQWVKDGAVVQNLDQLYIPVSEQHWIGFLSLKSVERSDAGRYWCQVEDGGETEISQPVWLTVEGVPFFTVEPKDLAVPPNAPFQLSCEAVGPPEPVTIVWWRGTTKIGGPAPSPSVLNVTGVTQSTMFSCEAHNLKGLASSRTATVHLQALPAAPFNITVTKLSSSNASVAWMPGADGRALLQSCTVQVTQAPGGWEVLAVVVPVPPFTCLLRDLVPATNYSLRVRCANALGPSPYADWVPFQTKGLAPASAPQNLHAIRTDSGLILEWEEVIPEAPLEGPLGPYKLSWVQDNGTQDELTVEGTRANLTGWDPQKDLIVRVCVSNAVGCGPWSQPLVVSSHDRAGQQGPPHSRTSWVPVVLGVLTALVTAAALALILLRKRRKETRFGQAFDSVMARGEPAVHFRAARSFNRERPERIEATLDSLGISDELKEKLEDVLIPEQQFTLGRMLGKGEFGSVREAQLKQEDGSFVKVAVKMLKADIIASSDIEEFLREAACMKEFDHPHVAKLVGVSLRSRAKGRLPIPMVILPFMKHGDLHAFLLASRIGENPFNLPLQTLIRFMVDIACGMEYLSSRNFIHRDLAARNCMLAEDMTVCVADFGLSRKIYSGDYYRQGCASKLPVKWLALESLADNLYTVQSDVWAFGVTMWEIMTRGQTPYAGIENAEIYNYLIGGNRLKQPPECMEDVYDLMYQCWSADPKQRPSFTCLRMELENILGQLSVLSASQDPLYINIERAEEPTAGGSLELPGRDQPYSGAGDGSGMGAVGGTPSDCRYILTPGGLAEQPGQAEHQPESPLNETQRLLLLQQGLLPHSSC

[13] = biological target: Macrophage colony-stimulating factor 1 receptor (Homo sapiens, UniProt P07333);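 further: value comes from the Navigating the Kinome screening panel, CSF1R member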
Sequence of Macrophage colony-stimulating factor 1 receptor (P07333 whole entry): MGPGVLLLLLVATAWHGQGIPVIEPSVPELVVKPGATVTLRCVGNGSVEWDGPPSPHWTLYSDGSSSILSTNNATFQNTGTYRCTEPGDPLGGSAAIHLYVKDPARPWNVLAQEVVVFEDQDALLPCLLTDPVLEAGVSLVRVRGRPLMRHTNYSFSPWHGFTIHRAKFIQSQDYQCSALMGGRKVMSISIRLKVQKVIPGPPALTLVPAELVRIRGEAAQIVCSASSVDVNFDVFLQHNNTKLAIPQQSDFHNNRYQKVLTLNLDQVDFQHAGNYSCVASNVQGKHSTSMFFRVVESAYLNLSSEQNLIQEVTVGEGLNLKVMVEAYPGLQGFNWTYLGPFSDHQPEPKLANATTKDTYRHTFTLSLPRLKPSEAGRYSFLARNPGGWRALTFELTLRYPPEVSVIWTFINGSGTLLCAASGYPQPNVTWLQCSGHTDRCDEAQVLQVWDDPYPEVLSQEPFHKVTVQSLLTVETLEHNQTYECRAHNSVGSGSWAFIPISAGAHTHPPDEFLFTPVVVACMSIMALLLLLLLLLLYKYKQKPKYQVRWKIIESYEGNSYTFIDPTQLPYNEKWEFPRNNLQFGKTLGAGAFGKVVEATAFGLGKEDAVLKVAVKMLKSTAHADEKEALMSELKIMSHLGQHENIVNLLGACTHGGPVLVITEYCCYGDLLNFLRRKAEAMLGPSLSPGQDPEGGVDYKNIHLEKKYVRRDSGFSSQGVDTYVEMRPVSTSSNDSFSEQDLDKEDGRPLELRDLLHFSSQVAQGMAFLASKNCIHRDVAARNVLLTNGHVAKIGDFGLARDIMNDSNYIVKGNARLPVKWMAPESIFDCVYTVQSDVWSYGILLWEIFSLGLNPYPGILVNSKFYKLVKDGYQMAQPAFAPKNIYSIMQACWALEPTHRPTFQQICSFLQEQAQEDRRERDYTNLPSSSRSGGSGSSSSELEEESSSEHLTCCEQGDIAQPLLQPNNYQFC

[14] = biological target: Dual specificity mitogen-activated protein kinase kinase 1 (Homo sapiens, UniProt Q02750); assay: Navigating the Kinome. Panel member name: MAP2K1
[15] = biological target: Proto-oncogene tyrosine-protein kinase receptor Ret (Homo sapiens, UniProt P07949);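 further: measured within a kinome-wide profiling panel, RET as the panel member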
[16] = biological target: Receptor-type tyrosine-protein kinase FLT3 (Homo sapiens, UniProt P36888);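 further: FLT3 was tested as one member of a kinome-wide kinase panel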
[17] = biological target: 5'-AMP-activated protein kinase catalytic subunit alpha-1 (Homo sapiens, UniProt Q13131)
[18] = biological target: Death-associated protein kinase 3 (Homo sapiens, UniProt O43293);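 further: measured as one member of a kinome-wide profiling panel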
[19] = biological target: Glycogen synthase kinase-3 alpha (Homo sapiens, UniProt P49840);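 further: GSK3A result taken from a broad kinome-wide kinase panel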
LIM domain kinase 1 = LIM domain kinase 1 (Homo sapiens, UniProt P53667); assay: Navigating the Kinome. Panel member name: LIMK1
[20] = biological target: Tyrosine-protein kinase BTK (Homo sapiens, UniProt Q06187)
[21] = biological target: Dual specificity tyrosine-phosphorylation-regulated kinase 1B (Homo sapiens, UniProt Q9Y463); assay: Navigating the Kinome. Panel member name: DYRK1B
[22] = biological target: Platelet-derived growth factor receptor alpha (Homo sapiens, UniProt P16234); assay: Navigating the Kinome. Panel member name: PDGFRA
[23] = biological target: Serine/threonine-protein kinase pim-1 (Homo sapiens, UniProt P11309)
[24] = biological target: Fibroblast growth factor receptor 1 (Homo sapiens, UniProt P11362)
[25] = biological target: Cyclin-dependent kinase 9 (Homo sapiens, UniProt P50750);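 further: value from the CDK9 entry of a kinome-spanning kinase panel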
[26] = biological target: Hepatocyte growth factor receptor (Homo sapiens, UniProt P08581);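 further: kinase panel profiling across the kinome, with MET as the panel member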
[27] = biological target: Mitogen-activated protein kinase kinase kinase kinase 2 (Homo sapiens, UniProt Q12851);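 further: measured as one member of a kinome-wide kinase panel, with MAP4K2 as the panel entry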
[28] = biological target: Cyclin-dependent kinase 8 (Homo sapiens, UniProt P49336); assay: Navigating the Kinome. Panel member name: CDK8
Aurora kinase B = Aurora kinase B (Homo sapiens, UniProt Q96GD4)
[29] = biological target: Leucine-rich repeat serine/threonine-protein kinase 2 (Homo sapiens, UniProt Q5S007);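 further: value from a broad kinome-wide panel profiling study in which LRRK2 was one of the kinases tested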
Sequence of Leucine-rich repeat serine/threonine-protein kinase 2 (Q5S007 whole entry): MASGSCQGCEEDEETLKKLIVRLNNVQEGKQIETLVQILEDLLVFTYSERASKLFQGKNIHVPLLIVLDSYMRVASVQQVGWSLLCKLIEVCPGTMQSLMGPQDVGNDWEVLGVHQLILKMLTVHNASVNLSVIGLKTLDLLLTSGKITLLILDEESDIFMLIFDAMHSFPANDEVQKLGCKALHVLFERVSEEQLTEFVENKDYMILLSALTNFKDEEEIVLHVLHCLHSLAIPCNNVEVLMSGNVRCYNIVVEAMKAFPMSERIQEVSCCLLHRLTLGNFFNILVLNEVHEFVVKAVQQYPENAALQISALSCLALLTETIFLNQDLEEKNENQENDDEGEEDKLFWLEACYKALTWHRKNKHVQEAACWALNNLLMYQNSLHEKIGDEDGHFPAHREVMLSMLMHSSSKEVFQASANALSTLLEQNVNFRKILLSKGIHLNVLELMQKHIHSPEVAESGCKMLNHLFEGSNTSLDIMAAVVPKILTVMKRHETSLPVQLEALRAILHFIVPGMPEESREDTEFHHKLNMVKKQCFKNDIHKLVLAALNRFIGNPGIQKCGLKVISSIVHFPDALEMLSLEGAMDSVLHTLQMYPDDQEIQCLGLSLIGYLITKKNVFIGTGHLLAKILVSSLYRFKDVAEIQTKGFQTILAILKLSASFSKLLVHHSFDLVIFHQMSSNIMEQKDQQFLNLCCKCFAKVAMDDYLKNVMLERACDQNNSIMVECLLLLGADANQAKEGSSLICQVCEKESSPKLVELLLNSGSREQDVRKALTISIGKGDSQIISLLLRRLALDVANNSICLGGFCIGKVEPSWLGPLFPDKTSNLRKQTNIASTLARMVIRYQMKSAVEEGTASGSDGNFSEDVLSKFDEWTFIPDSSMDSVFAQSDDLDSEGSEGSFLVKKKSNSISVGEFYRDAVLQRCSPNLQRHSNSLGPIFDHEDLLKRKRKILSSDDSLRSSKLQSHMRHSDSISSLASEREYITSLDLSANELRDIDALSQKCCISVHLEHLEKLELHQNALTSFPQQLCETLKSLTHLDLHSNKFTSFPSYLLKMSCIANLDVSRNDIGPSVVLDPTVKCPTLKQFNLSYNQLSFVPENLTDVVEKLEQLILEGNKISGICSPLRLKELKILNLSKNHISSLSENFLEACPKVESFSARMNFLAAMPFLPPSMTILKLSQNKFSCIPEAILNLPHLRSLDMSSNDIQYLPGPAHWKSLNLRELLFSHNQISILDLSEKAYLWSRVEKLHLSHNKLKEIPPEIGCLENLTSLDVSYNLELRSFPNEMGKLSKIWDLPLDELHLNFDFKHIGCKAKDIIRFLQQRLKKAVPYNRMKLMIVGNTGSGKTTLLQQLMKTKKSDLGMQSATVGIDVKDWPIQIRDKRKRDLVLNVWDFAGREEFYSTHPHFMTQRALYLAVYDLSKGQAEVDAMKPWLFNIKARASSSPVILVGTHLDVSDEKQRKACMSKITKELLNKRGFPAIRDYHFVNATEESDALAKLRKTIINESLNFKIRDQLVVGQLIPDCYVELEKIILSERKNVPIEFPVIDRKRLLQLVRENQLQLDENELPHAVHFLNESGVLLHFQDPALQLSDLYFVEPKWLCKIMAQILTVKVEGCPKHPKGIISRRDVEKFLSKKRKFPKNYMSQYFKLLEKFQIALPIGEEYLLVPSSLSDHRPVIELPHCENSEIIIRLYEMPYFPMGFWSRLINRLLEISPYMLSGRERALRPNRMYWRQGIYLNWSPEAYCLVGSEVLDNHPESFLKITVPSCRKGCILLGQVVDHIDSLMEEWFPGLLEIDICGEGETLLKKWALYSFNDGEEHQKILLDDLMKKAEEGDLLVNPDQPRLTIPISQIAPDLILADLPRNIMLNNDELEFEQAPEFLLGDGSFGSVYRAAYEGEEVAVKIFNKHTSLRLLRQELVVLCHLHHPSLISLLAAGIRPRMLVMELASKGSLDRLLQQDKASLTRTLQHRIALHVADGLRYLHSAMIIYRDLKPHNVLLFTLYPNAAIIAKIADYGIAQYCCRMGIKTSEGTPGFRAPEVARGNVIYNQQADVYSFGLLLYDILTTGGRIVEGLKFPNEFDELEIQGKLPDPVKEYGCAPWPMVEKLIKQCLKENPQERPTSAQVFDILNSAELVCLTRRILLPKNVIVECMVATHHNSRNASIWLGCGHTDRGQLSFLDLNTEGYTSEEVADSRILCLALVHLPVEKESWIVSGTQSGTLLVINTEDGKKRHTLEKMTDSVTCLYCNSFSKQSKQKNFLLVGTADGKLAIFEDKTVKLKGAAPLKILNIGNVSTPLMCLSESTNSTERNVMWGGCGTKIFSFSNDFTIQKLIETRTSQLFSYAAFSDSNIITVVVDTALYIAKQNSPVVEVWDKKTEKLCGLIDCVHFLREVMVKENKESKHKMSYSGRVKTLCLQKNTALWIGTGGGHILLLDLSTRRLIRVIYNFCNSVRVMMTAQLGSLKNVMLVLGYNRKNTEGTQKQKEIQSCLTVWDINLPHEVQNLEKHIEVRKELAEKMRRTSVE

[30] = biological target: ALK tyrosine kinase receptor (Homo sapiens, UniProt Q9UM73);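 further: ALK tested as one member of a kinase panel screen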
[31] = biological target: Glycogen synthase kinase-3 beta (Homo sapiens, UniProt P49841);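 further: value comes from a broad kinome profiling panel, with GSK3B as the panel member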
[32] = biological target: cAMP-dependent protein kinase catalytic subunit alpha (Homo sapiens, UniProt P17612)
[33] = biological target: Cyclin-dependent kinase 7 (Homo sapiens, UniProt P50613);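 further: value comes from a kinome-wide kinase profiling panel in which CDK7 is one member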
Activated CDC42 kinase 1 = Activated CDC42 kinase 1 (Homo sapiens, UniProt Q07912); assay: Navigating the Kinome. Panel member name: ACK1
[34] = biological target: Rho-associated protein kinase 1 (Homo sapiens, UniProt Q13464);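 further: measured within a broad kinome-wide panel profiling many kinases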
[35] = biological target: Serine/threonine-protein kinase PAK 4 (Homo sapiens, UniProt O96013);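 further: value obtained within a kinome profiling panel in which PAK4 was one of the panel members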
[36] = biological target: Tyrosine-protein kinase ABL1 (Homo sapiens, UniProt P00519)
[37] = biological target: Macrophage-stimulating protein receptor (Homo sapiens, UniProt Q04912); assay: Navigating the Kinome. Panel member name: MST1R
[38] = biological target: High affinity nerve growth factor receptor (Homo sapiens, UniProt P04629);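 further: NTRK1 tested as one member of a kinome-wide profiling panel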
Aurora kinase A = Aurora kinase A (Homo sapiens, UniProt O14965);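 further: value from the Navigating the Kinome kinase panel profiling, panel entry STK6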
[39] = biological target: Vascular endothelial growth factor receptor 1 (Homo sapiens, UniProt P17948);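 further: measured within a kinome-wide profiling panel, FLT1 as the panel member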
[40] = biological target: Insulin-like growth factor 1 receptor (Homo sapiens, UniProt P08069); assay: Navigating the Kinome. Panel member name: IGF1R
[41] = biological target: cAMP-dependent protein kinase catalytic subunit PRKX (Homo sapiens, UniProt P51817)
[42] = biological target: Cyclin-dependent kinase 5 (Homo sapiens, UniProt Q00535);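 further: CDK5 measured as one member of a kinase profiling panel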
[43] = biological target: Dual specificity protein kinase CLK2 (Homo sapiens, UniProt P49760)
[44] = biological target: Serine/threonine-protein kinase Chk1 (Homo sapiens, UniProt O14757);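 further: measured as one member of a kinome-wide kinase profiling panel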
[45] = biological target: Dual specificity tyrosine-phosphorylation-regulated kinase 1A (Homo sapiens, UniProt Q13627);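 further: measured against DYRK1A as one member of a broad kinome profiling panel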
Activin receptor type-1 = Activin receptor type-1 (Homo sapiens, UniProt Q04771); assay: Navigating the Kinome. Panel member name: ACVR1
[46] = biological target: Dual specificity protein kinase CLK4 (Homo sapiens, UniProt Q9HAZ1)
[47] = biological target: Serine/threonine-protein kinase TBK1 (Homo sapiens, UniProt Q9UHD2); assay: Navigating the Kinome. Panel member name: TBK1
[48] = biological target: Fibroblast growth factor receptor 3 (Homo sapiens, UniProt P22607)
[49] = biological target: Vascular endothelial growth factor receptor 2 (Homo sapiens, UniProt P35968)
[50] = biological target: Vascular endothelial growth factor receptor 3 (Homo sapiens, UniProt P35916);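 further: value from a kinome-wide profiling panel, with FLT4 as the panel member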
[51] = biological target: Serine/threonine-protein kinase 17A (Homo sapiens, UniProt Q9UEE5)
[52] = biological target: Mast/stem cell growth factor receptor Kit (Homo sapiens, UniProt P10721);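 further: KIT entry within a kinase panel assay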
[53] = biological target: Tyrosine-protein kinase Blk (Homo sapiens, UniProt P51451);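 further: obtained as one member of a kinome-wide kinase assay panel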
[54] = biological target: Homeodomain-interacting protein kinase 2 (Homo sapiens, UniProt Q9H2X6);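 further: measured within a kinome-wide kinase profiling panel, HIPK2 being one panel member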
[55] = biological target: Tyrosine-protein kinase receptor UFO (Homo sapiens, UniProt P30530)
[56] = biological target: Protein kinase C gamma type (Homo sapiens, UniProt P05129)
[57] = biological target: G protein-coupled receptor kinase 5 (Homo sapiens, UniProt P34947); assay: Navigating the Kinome. Panel member name: GPRK5
[58] = biological target: Homeodomain-interacting protein kinase 4 (Homo sapiens, UniProt Q8NE63)
[59] = biological target: Tyrosine-protein kinase JAK3 (Homo sapiens, UniProt P52333)
[60] = biological target: Casein kinase II subunit alpha (Homo sapiens, UniProt P68400)
[61] = biological target: Tyrosine-protein kinase JAK2 (Homo sapiens, UniProt O60674);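 further: JAK2 tested as one member of a kinase panel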

For Nc1cc(=O)[nH]n1-c1ccccn1, the Ki [1] was 20 µM (active), the Ki [2] was 15.8 µM (active) and the Ki [3] was 10 µM (active). For the same compound, the Ki [4] was 31.6 µM (active), the Ki [5] was 63.1 µM (active) and the Ki [6] was 100 µM (active). For the same compound, the Ki [7] was 3.16 µM (active), the Ki [8] was 20 µM (active) and the Ki [9] was 3.98 µM (active). For the same compound, the Ki [10] was 50.1 µM (active), the Ki [11] was 15.8 µM (active) and the Ki [12] was 7.94 µM (active). The Ki [13] was 15.8 µM (active), the Ki [14] was 79.4 µM (active) and the Ki [15] was 12.6 µM (active). For the same compound, the Ki [16] was 15.8 µM (active), the Ki [17] was 15.8 µM (active) and the Ki [18] was 20 µM (active). For the same compound, the Ki [19] was 31.6 µM (active), the Ki (LIM domain kinase 1) was 1.58 µM (active) and the Ki [20] was 31.6 µM (active). The Ki [21] was 3.98 µM (active), the Ki [22] was 12.6 µM (active) and the Ki [23] was 50.1 µM (active). The Ki [24] was 31.6 µM (active), the Ki [25] was 3.98 µM (active) and the Ki [26] was 6.31 µM (active). The Ki [27] was 10 µM (active), the Ki [28] was 5.01 µM (active) and the Ki (Aurora kinase B) was 25.1 µM (active). For the same compound, the Ki [29] was 6.31 µM (active), the Ki [30] was 31.6 µM (active) and the Ki [31] was 20 µM (active). The Ki [32] was 15.8 µM (active), the Ki [33] was 20 µM (active) and the Ki (Activated CDC42 kinase 1) was 50.1 µM (active). For the same compound, the Ki [34] was 79.4 µM (active), the Ki [35] was 63.1 µM (active) and the Ki [36] was 12.6 µM (active). For the same compound, the Ki [37] was 50.1 µM (active), the Ki [38] was 15.8 µM (active) and the Ki (Aurora kinase A) was 7.94 µM (active). The Ki [39] was 20 µM (active), the Ki [40] was 79.4 µM (active) and the Ki [41] was 10 µM (active). The Ki [42] was 6.31 µM (active), the Ki [43] was 50.1 µM (active) and the Ki [44] was 2.51 µM (active). The Ki [45] was 2 µM (active), the Ki (Activin receptor type-1) was 15.8 µM (active) and the Ki [46] was 0.501 µM (active). The Ki [47] was 7.94 µM (active).
In the case of CN1CCN(c2ccc(C(=O)Nc3n[nH]c4ccc(Cc5cc(F)cc(F)c5)cc34)c(NC3CCOCC3)c2)CC1 [ENTRECTINIB], the Ki [48] is reported as 0.158 µM (active), the Ki [9] is reported as 0.00158 µM (active) and the Ki [11] is reported as > 3.98 µM (inactive). The Ki [12] was > 3.16 µM (inactive), the Ki [13] was 0.0398 µM (active) and the Ki [49] was 0.398 µM (active). For the same compound, the Ki [18] was 2.51 µM (active), the Ki [21] was > 2.51 µM (inactive) and the Ki [50] was 0.2 µM (active). The Ki [22] was > 2.51 µM (inactive), the Ki [51] was > 3.16 µM (inactive) and the Ki [52] was 0.158 µM (active). The Ki [53] was 0.2 µM (active), the Ki [54] was 1.58 µM (active) and the Ki [55] was 0.0398 µM (active). The Ki [56] was 0.631 µM (active), the Ki [28] was > 3.98 µM (inactive) and the Ki [57] was 2.51 µM (active). For the same compound, the Ki [29] was 2.51 µM (active), the Ki [58] was > 7.94 µM (inactive) and the Ki [59] was 0.501 µM (active). The Ki [60] was > 6.31 µM (inactive), the Ki [39] was 0.794 µM (active) and the Ki [61] was 0.02 µM (active).
